In patent US20260055083A1, “APOL1 INHIBITORS AND METHODS OF USE” (Maze Therapeutics, Inc., priority 2022, published 2026) one finds EC50 and AC50 data, which are given here for 10 compounds.

Structures are written as SMILES.

The target in assay [1] is T1, APOL1 G2 (Homo sapiens, UniProt O14791, DEL388-389).
T1 construct: expressed in transfected cells; host or cells: HEK293/T-REx APOL1 G2 clone #2, doxycycline-inducible
T1 sequence (O14791 with tags, fused parts or gaps DEL388-389): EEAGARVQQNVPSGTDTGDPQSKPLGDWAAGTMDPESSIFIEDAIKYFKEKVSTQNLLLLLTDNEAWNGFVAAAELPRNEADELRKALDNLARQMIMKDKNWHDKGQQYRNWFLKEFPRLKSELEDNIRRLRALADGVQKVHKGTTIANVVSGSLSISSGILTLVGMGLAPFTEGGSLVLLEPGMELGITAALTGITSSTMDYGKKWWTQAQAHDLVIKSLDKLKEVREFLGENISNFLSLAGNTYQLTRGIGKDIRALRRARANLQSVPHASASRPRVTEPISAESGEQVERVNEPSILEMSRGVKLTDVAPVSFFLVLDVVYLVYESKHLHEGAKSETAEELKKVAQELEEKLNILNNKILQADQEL
Nature of the assay: APOL1 G2 HEK293 rescue of cell death caused by overexpression of APOL1 (CellTiter-Glo). Conditions: HEK293/T-REx APOL1 G2 clone #2, doxycycline induction, 17 hours, CellTiter-Glo luminescence; reversal of cell death; geometric mean of at least 2 assay runs. The class given is cell-based. A digest of the protocol:
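Viability read by CellTiter-Glo luminescence after 17 h, 37 °C, in HEK293/T-REx cells expressing APOL1 G2 on 6 ng/mL doxycycline, 5,000 cells/well. Compounds tested as duplicate 8-point, 3-fold dilutions, 0.5% DMSO final; four-parameter logistic EC50, usually geometric mean of ≥2 days.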
In general terms: Cellular ATP, detected with luciferase, serves as a proxy for viable cell number.

The target in assay [2] is T1, APOL1 G2. As to the kind of experiment: APOL1 G2 FLIPR calcium influx assay (HEK T-REx/GCaMP6f/APOL1 G2 K6.3 cells). The class given is cell-based. Conditions: HEK293 clone expressing GCaMP6f, doxycycline-induced APOL1 G2; prevention of calcium influx; geometric mean of at least 2 assay runs. In a few lines:
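Cells express GCaMP6f stably and APOL1 G2 after a 6 h doxycycline induction. Duplicate 8-point dilutions sit 10 min at room temperature in Ca2+-free Tyrode's (pH 7.4), then Ca2+ is injected to 5 mM final and the FLIPR signal recorded. AC50s are geometric means across ≥2 days.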

Take `CN=S(C)(=O)c1ccc(OC[C@@H]2CN(CCc3cccc(C#N)c3)C[C@H]2C)cn1` (stereo partly drawn) [Compound 71, 3-{2-[(3S,4S)-3-methyl-4-[({6-[methyl(methylimino)oxo-λ^6-sulfanyl]pyridin-3-yl}oxy)methyl]pyrrolidin-1-yl]ethyl}benzonitrile]: the concentration giving a half-maximal response (EC50) (usually the concentration giving half of the maximal effect) at APOL1 G2 [1] was 287 nM. Besides, the AC50 (in general, the concentration giving half of the maximal activity seen) at APOL1 G2 [2] was determined as 492 nM.

Regarding `C[C@@H]1C[C@H](COc2ccc(S(C)(=O)=O)cc2)CN1C1CCc2c(C#N)cccc2C1` (single isomer, unassigned) [Compound 135, (6S or 6S)-6-[(2R,4S)-4-[(4-methanesulfonylphenoxy)methyl]-2-methylpyrrolidin-1-yl]-5,6,7,8-tetrahydronaphthalene-1-carbonitrile], the EC50 on APOL1 G2 [1] was 84.2 nM. Moreover, on APOL1 G2 [2], the AC50 is 576 nM.

Regarding `C[C@@H]1C[C@H](COc2ccc(S(C)(=O)=O)cc2)CN1C1CCc2c(C#N)cc(Cl)cc2C1` (single isomer, unassigned) [Compound 8, (6R or 6S)-3-chloro-6-[(2R,4S)-4-[(4-methanesulfonylphenoxy)methyl]-2-methylpyrrolidin-1-yl]-5,6,7,8-tetrahydronaphthalene-1-carbonitrile], the 50% effective concentration (EC50) at APOL1 G2 [1] turned out to be 150 nM. The AC50 at APOL1 G2 [2] is 1070 nM.

For `CC(C(O)c1cc(Cl)cc(C#N)c1)N1C[C@@H](COc2ccc(S(C)(=O)=O)cc2)[C@H](C)C1` (single isomer, unassigned) [Compound 102, 3-chloro-5-((1R,2R or 1S,2S)-1-hydroxy-2-((3S,4S)-3-methyl-4-((4-(methylsulfonyl)phenoxy)methyl)pyrrolidin-1-yl)propyl)benzonitrile], the EC50 at APOL1 G2 [1] is greater than 10000 nM. Besides, the AC50 on APOL1 G2 [2] turned out to be 744 nM.

Take `CC(C(O)c1cc(Cl)cc(C#N)c1)N1C[C@@H](COc2ccc(S(C)(=O)=O)cc2)[C@H](C)C1` (single isomer, unassigned) [Compound 100, 3-chloro-5-((1R,2S or 1S,2R)-1-hydroxy-2-((3S,4S)-3-methyl-4-((4-(methylsulfonyl)phenoxy)methyl)pyrrolidin-1-yl)propyl)benzonitrile]: the EC50 at APOL1 G2 [1] turned out to be 948 nM. In addition, the AC50 on APOL1 G2 [2] amounted to 575 nM.

`C[C@@H]1C[C@H](COc2ccc(S(C)(=O)=O)cc2)CN1C1Cc2ccc(Cl)cc2C1` (single isomer, unassigned) [Compound 3, (2R,4S)-1-[(2R or 2S)-5-chloro-2,3-dihydro-1H-inden-2-yl]-4-[(4-methanesulfonylphenoxy)methyl]-2-methylpyrrolidine]: the EC50 at APOL1 G2 [1] turned out to be 398 nM. Further, the AC50 at APOL1 G2 [2] stood at 721 nM.

For `CS(=O)(=O)C1(c2ccc(OC[C@@H]3CN(CCc4cccc(Cl)c4)CCN3)cc2)COC1` [Compound 107, (3S)-1-[2-(3-chlorophenyl)ethyl]-3-{[4-(3-methanesulfonyloxetan-3-yl)phenoxy]methyl}piperazine], the EC50 at APOL1 G2 [1] came out at 245 nM. The AC50 on APOL1 G2 [2] is less than 86.6 nM.

`CS(=O)(=O)c1ccc(OC[C@H]2C[C@H]3CCCC(Cc4cc(Cl)cc(C#N)c4)N3C2)cc1` (single isomer, unassigned) [Compound 125, 3-{[(2S,5R or 5S,8aR)-2-[(4-methanesulfonylphenoxy)methyl]-octahydroindolizin-5-yl]methyl}-5-chlorobenzonitrile]: on APOL1 G2 [1], the EC50 was 449 nM. Besides, at APOL1 G2 [2], the AC50 was 2210 nM.

On to `CN=S(C)(=O)c1ccc(OC[C@@H]2CN(CCc3cccc(C#N)c3)C[C@H]2C)cn1` (single isomer, unassigned) [Compound 72], for which the EC50 on APOL1 G2 [1] came to 217 nM. In addition, on APOL1 G2 [2], the AC50 was found to be 183 nM.

For `C[C@@H]1C[C@H](COc2ccc(S(=O)(=O)CCS(C)(=O)=O)cc2)CN1C1CCc2c(C#N)cc(Cl)cc2C1` (stereo partly drawn) [Compound 46, 3-chloro-6-[(2R,4S)-4-{[4-(2-methanesulfonylethanesulfonyl)phenoxy]methyl}-2-methylpyrrolidin-1-yl]-5,6,7,8-tetrahydronaphthalene-1-carbonitrile], at APOL1 G2 [1], the EC50 turned out to be 418 nM. Further, the AC50 on APOL1 G2 [2] is 1610 nM.
